How the values were obtained:
Experiment in all cases: KINOMEscan Max
Format in all cases: binding
TRPM6 = TRPM6 (Homo sapiens, UniProt Q9BX84)
Summary of the method: (§1)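 Quantitative PCR of the DNA tag reports competition between test compound and an immobilized, active-site directed ligand for binding to each DNA-tagged kinase.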

RIPK5 = biological target: T1, RIPK5 (Homo sapiens, UniProt Q6XUX3)
T1 construct: DNA tag (qPCR read-out)
Summary of the method: as §1

DYRK1B = biological target: T2, DYRK1B (Homo sapiens, UniProt Q9Y463)
T2 construct: DNA tag (qPCR read-out); purchased Ambit Kinomescan
Summary of the method: as §1

TNIK = biological target: T3, TNIK (Homo sapiens, UniProt Q9UKE5)
T3 construct: purchased Ambit Kinomescan (contract screening service)
T3 sequence (Q9UKE5 whole entry): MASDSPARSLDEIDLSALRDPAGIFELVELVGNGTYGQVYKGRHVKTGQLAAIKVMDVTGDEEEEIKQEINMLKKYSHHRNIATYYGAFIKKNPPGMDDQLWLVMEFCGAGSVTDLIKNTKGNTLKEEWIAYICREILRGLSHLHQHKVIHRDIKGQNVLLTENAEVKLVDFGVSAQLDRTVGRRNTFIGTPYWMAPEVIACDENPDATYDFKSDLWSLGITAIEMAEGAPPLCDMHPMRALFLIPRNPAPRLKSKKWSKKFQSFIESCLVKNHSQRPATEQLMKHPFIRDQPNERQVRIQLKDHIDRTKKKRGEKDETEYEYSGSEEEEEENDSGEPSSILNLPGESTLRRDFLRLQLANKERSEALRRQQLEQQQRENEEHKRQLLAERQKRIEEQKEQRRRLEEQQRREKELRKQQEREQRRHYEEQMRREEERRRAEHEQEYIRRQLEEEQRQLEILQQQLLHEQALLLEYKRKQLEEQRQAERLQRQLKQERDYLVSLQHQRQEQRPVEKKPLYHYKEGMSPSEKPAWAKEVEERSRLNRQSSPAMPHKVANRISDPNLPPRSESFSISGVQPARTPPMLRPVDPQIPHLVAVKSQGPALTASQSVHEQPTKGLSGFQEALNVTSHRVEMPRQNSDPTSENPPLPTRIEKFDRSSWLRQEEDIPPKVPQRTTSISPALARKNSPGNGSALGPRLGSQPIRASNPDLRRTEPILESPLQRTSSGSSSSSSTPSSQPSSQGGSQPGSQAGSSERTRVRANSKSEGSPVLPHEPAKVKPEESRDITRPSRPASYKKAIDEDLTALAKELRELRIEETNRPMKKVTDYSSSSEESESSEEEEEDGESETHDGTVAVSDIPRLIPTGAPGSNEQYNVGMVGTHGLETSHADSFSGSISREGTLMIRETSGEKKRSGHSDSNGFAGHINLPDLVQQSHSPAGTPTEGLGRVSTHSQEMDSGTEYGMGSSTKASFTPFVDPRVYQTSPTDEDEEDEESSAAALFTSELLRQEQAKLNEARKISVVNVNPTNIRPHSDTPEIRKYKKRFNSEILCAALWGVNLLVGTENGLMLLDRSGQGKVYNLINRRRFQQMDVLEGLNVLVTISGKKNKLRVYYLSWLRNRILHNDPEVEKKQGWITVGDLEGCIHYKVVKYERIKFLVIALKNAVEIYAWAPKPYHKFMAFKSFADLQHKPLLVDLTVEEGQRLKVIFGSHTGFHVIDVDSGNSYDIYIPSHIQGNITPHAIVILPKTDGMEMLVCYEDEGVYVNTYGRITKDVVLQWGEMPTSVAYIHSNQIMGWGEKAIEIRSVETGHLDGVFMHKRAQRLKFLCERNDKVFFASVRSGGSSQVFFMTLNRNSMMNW
Summary of the method: as §1

[1] = biological target: T4, RSK4(Kin.Dom.1-N-terminal) (Homo sapiens, UniProt Q9UK32); conditions: 1 μM
T4 construct: RSK4(Kin.Dom.1-N-terminal); DNA tag (qPCR read-out)
Summary of the method: as §1

LKB1 = biological target: T5, LKB1 (Homo sapiens, UniProt Q15831)
T5 construct: purchased Ambit Kinomescan (contract screening)
Summary of the method: as §1

AXL = biological target: T6, AXL (Homo sapiens, UniProt P30530)
T6 construct: DNA tag (qPCR read-out)
Summary of the method: as §1

[2] = biological target: ABL1(E255K)-phosphorylated) (Homo sapiens, UniProt P00519, E255K)
Summary of the method: as §1

NEK1 = NEK1 (Homo sapiens, UniProt Q96PY6)
Summary of the method: as §1

PCTK3 = PCTK3 (Homo sapiens, UniProt Q07002)
Sequence of PCTK3 (Q07002 whole entry): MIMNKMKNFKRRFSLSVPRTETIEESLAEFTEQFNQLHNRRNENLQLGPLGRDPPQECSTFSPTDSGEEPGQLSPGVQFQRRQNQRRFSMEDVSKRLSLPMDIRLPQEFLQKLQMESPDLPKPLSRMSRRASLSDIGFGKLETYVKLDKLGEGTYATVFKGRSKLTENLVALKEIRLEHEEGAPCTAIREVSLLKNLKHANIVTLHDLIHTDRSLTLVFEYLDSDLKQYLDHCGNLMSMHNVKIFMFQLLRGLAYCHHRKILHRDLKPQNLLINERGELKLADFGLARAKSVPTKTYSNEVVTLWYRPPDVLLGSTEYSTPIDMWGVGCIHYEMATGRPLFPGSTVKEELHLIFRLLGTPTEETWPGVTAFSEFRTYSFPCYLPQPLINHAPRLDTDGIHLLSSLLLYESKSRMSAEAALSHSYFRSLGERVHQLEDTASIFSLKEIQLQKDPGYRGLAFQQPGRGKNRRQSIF
Summary of the method: as §1

BRAF = biological target: T7, BRAF (Homo sapiens, UniProt P15056)
T7 construct: DNA tag (qPCR label); purchased Ambit Kinomescan (contract screening)
T7 sequence (P15056 whole entry): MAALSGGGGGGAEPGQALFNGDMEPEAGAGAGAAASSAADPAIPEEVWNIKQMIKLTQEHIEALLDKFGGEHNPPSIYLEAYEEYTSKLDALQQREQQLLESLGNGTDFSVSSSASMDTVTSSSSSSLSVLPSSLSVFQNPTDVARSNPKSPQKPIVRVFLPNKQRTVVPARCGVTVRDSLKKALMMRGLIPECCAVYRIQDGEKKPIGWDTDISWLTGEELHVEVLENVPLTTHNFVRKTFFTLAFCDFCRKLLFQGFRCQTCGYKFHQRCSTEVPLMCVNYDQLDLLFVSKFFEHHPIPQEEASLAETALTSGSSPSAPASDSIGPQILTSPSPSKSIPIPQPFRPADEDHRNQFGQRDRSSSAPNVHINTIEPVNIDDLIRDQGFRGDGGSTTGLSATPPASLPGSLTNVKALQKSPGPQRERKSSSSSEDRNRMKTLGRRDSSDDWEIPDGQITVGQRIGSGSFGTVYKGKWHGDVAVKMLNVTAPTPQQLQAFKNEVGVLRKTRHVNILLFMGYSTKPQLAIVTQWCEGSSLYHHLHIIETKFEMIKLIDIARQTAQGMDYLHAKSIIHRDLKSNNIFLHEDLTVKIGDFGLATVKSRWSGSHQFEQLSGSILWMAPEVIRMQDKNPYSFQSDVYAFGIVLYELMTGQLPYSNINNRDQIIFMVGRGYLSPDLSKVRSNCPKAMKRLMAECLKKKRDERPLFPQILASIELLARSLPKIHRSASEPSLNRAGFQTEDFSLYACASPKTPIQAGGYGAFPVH
Summary of the method: as §1

p38-beta = p38-beta (Homo sapiens, UniProt Q15759)
Sequence of p38-beta (Q15759 whole entry): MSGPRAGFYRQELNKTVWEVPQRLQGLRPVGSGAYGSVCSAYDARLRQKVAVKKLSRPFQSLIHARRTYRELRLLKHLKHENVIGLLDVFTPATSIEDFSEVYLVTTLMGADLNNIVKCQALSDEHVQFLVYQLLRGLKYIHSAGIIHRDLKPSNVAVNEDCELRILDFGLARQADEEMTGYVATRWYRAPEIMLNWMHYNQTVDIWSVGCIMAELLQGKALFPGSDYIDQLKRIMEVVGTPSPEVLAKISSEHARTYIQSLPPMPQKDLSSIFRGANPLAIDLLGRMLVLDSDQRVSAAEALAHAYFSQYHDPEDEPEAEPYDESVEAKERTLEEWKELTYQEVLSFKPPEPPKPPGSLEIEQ
Summary of the method: as §1

BMPR1B = biological target: T8, BMPR1B (Homo sapiens, UniProt O00238)
T8 construct: DNA tag (qPCR label); purchased Ambit Kinomescan (contract screening)
Summary of the method: as §1

GRK1 = GRK1 (Homo sapiens, UniProt Q15835)
Summary of the method: as §1

MAP4K2 = MAP4K2 (Homo sapiens, UniProt Q12851)
Summary of the method: as §1

YANK2 = biological target: T9, YANK2 (Homo sapiens, UniProt Q9NY57)
T9 construct: purchased Ambit Kinomescan (contract screening service)
Summary of the method: as §1

MST1 = MST1 (Homo sapiens, UniProt Q13043); conditions: 1 μM
Sequence of MST1 (Q13043 whole entry): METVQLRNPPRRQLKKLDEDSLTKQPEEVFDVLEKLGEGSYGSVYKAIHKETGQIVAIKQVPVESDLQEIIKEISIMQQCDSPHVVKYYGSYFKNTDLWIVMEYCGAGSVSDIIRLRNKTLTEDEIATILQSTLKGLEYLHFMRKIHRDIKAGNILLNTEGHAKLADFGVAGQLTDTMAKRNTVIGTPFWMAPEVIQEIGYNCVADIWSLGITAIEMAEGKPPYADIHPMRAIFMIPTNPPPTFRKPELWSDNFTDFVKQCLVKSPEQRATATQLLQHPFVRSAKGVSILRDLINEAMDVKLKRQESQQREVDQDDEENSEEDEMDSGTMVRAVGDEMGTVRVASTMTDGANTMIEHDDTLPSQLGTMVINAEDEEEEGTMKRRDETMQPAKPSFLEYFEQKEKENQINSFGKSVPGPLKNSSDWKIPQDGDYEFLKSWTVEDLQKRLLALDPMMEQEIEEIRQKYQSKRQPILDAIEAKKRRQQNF
Summary of the method: as §1

[3] = biological target: ABL1(H396P)nonphosphorylated (Homo sapiens, UniProt P00519, H396P)
Summary of the method: as §1

ACVRL1 = biological target: T10, ACVRL1 (Homo sapiens, UniProt P37023)
T10 construct: DNA tag (qPCR label); purchased Ambit Kinomescan (contract screening)
T10 sequence (P37023 22-503): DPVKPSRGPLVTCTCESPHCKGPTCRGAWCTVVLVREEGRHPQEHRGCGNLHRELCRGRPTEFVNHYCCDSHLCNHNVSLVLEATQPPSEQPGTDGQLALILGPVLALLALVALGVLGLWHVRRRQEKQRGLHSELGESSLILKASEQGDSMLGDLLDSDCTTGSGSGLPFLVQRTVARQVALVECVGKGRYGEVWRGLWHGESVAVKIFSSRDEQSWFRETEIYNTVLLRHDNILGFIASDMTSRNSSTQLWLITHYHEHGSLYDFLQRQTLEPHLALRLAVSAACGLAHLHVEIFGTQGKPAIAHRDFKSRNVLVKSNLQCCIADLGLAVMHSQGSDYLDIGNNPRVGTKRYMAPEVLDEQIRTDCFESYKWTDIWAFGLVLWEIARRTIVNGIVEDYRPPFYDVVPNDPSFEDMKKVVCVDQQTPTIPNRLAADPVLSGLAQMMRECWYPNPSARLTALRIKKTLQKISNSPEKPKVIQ
Summary of the method: as §1

FGFR3(G697C) = biological target: T11, FGFR3(G697C) (Homo sapiens, UniProt P22607, G697C)
T11 construct: purchased Ambit Kinomescan (contract panel, KINOMEscan Max)
Summary of the method: as §1

[4] = biological target: T12, JAK1(JH2domain-pseudokinase) (Homo sapiens, UniProt P23458); conditions: 1 μM
T12 construct: JAK1(JH2domain-pseudokinase)
T12 sequence (P23458 583-855 limits assumed): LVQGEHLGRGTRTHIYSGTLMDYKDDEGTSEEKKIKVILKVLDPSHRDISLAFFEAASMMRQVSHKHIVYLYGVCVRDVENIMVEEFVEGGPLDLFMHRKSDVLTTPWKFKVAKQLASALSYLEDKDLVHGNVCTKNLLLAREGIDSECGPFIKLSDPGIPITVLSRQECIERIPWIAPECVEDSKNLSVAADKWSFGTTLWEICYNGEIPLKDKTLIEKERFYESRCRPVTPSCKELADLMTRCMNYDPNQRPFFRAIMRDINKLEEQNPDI
Summary of the method: as §1

PRKG1 = biological target: T13, PRKG1 (Homo sapiens, UniProt Q13976)
T13 construct: DNA tag (qPCR read-out)
Summary of the method: as §1

TNNI3K = biological target: T14, TNNI3K (Homo sapiens, UniProt Q59H18)
T14 construct: purchased Ambit Kinomescan (contract screening service)
Summary of the method: as §1

ERK4 = biological target: T15, ERK4 (Homo sapiens, UniProt P31152)
T15 construct: purchased Ambit Kinomescan (contract screening)
Summary of the method: as §1

PRP4 = biological target: T16, PRP4 (Homo sapiens, UniProt Q13523)
T16 construct: purchased Ambit (KINOMEscan Max service)
Summary of the method: as §1

CDC2L2 = biological target: T17, CDC2L2 (Homo sapiens, UniProt Q9UQ88)
T17 construct: purchased Ambit (KINOMEscan Max service)
T17 sequence (Q9UQ88 whole entry): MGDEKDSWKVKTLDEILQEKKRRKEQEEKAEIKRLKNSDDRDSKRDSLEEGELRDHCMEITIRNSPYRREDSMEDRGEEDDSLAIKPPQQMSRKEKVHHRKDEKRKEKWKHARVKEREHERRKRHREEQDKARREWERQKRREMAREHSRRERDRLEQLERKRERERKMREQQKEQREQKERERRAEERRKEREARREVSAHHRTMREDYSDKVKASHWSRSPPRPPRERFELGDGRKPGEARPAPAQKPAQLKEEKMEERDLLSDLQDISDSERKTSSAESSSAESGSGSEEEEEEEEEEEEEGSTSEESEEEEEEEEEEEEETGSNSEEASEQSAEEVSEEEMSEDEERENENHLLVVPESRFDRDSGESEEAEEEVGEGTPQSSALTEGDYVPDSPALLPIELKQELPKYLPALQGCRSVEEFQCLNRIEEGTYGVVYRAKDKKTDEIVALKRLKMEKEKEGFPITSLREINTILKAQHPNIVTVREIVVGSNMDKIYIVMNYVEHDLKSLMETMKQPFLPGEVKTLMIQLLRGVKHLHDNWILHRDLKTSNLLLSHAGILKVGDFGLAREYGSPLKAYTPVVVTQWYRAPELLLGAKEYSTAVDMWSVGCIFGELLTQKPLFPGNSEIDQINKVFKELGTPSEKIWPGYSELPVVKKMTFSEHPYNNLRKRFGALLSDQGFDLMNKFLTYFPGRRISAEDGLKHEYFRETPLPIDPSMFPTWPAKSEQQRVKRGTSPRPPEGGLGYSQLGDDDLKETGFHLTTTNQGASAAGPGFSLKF
Summary of the method: as §1

TRKA = biological target: T18, TRKA (Homo sapiens, UniProt P04629)
T18 construct: purchased Ambit Kinomescan (contract screening service)
Summary of the method: as §1

GRK7 = biological target: T19, GRK7 (Homo sapiens, UniProt Q8WTQ7)
T19 construct: purchased Ambit Kinomescan (contract panel, KINOMEscan Max)
Summary of the method: as §1

TIE2 = TIE2 (Homo sapiens, UniProt Q02763)
Summary of the method: as §1

HPK1 = biological target: T20, HPK1 (Homo sapiens, UniProt Q92918)
T20 construct: purchased Ambit Kinomescan (contract panel, KINOMEscan Max)
Summary of the method: as §1

MEK5 = MEK5 (Homo sapiens, UniProt Q13163)
Summary of the method: as §1

MRCKA = MRCKA (Homo sapiens, UniProt Q5VT25)
Summary of the method: as §1

MAST1 = MAST1 (Homo sapiens, UniProt Q9Y2H9)
Summary of the method: as §1

PIK3CA(E545A) = biological target: T21, PIK3CA(E545A) (Homo sapiens, UniProt P42336, E545A)
T21 construct: purchased Ambit Kinomescan (contract screening)
Summary of the method: as §1

Work on NCCCNc1nc2c(Br)c(Br)c(Br)c(Br)c2[nH]1 [Compound 11, N-(3-aminopropyl)-4,5,6,7-tetrabromo-1H-benzo[d]imidazol-2-amine] yielded a remaining binding at 1 µM (TRPM6) of 91%, a remaining binding at 1 µM (RIPK5) of 100% and a remaining binding at 1 µM (DYRK1B) of 7.4%. The remaining binding at 1 µM (TNIK) was 100%, the “% binding” value [1] was 100% and the remaining binding at 1 µM (LKB1) was 96%. For the same molecule, the remaining binding at 1 µM (AXL) was 90%, the remaining binding at 1 µM [2] was 95% and the remaining binding at 1 µM (NEK1) was 100%. The remaining binding at 1 µM (PCTK3) was 92%, the remaining binding at 1 µM (BRAF) was 100% and the remaining binding at 1 µM (p38-beta) was 95%. It also gave a remaining binding at 1 µM (BMPR1B) of 100%, a remaining binding at 1 µM (GRK1) of 96% and a remaining binding at 1 µM (MAP4K2) of 78%. For the same molecule, the remaining binding at 1 µM (YANK2) was 100%, the “% binding” value (MST1) was 100% and the remaining binding at 1 µM [3] was 100%. The remaining binding at 1 µM (ACVRL1) was 100%, the remaining binding at 1 µM (FGFR3(G697C)) was 100% and the “% binding” value [4] was 93%. It also gave a remaining binding at 1 µM (PRKG1) of 53%, a remaining binding at 1 µM (TNNI3K) of 100% and a remaining binding at 1 µM (ERK4) of 98%. The remaining binding at 1 µM (PRP4) was 84%, the remaining binding at 1 µM (CDC2L2) was 82% and the remaining binding at 1 µM (TRKA) was 100%. The remaining binding at 1 µM (GRK7) was 100%, the remaining binding at 1 µM (TIE2) was 91% and the remaining binding at 1 µM (HPK1) was 100%. It also gave a remaining binding at 1 µM (MEK5) of 73%, a remaining binding at 1 µM (MRCKA) of 100% and a remaining binding at 1 µM (MAST1) of 95%. The remaining binding at 1 µM (PIK3CA(E545A)) was 96%.

— patent US20110230481A2, “DERIVATIVES OF TETRABROMOBENZIMIDAZOLE, A PROCESS FOR THE PREPARATION THEREOF, A PHARMACEUTICAL COMPOSITION COMPRISING THE SAME, A METHOD OF USING THE SAME, A METHOD FOR MODULATING OR REGULATING SERINE/THREONINE KINASES, AND SERINE/THREONINE KINASES MODULATING AGENT” (SELVITA S.A., priority 2009, published 2011)
